The numbers were not newly measured in patent publication US11975000B1, “Tadalafil oral transmucosal film” (Xiamen LP Pharmaceutical Co., Ltd., priority 2023, dated 2024), which cites them from elsewhere.

For series [1] the following is noted: in vivo.

Turning to `CN1CC(=O)N2[C@H](c3ccc4c(c3)OCO4)c3[nH]c4ccccc4c3C[C@@H]2C1=O` [Tadalafil, (6R-trans)-6-(1,3-benzodioxol-5-yl) 2,3,6,7,12,12a-hexahydro-2-methyl-pyrazino[1′,2′:1,6]pyrido[3,4-b]indole-1,4-dione], the “Solubility (in words)” value is “practically insoluble in water”. Also, the Water solubility result (in water at 25° C., U.S. Pat. No. 6,841,167) is listed as “about 2 μg/mL”. In series [1], the Duration of action is 24 to 36 h and the Reported maximum duration is 72 h.
